Structures are written as SMILES.

The text below walks through data of BindingDB's records for doi:10.7270/Q27W69N8 (Srmlsc, 2009).

The assay deals with T1, M17 leucyl aminopeptidase (Plasmodium falciparum (isolate 3D7), UniProt Q8IL11).
T1 sequence (Q8IL11 whole entry): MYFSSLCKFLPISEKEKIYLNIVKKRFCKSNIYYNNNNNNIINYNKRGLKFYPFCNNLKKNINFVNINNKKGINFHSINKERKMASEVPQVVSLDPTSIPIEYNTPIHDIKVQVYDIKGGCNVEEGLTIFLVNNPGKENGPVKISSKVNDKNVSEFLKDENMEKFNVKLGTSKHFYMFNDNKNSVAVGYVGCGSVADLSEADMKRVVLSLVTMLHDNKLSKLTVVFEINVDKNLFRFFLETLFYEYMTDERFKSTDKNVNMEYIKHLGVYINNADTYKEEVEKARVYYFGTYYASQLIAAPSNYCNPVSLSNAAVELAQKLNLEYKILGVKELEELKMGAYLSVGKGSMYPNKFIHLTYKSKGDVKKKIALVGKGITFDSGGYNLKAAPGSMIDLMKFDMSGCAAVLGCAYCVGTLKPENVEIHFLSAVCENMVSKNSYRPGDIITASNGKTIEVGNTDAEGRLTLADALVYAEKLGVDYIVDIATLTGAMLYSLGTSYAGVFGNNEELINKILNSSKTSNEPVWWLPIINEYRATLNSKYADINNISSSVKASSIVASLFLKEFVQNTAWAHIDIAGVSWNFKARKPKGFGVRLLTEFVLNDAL
The assay can be described thus: P. falciparum M17LAP inhibitors, primary screen, biochemical, fluorogenic H-Leu-NHMec substrate, 1536-well (AID 1619).
The compound `CC(C)(C)OC(=O)C1=[N+]2N[CH-]c3ccccc3C2C2(C(=O)c3ccccc3C2=O)[C@H]1c1ccc([N+](=O)[O-])cc1` (stereo partly drawn) [(2R,3R)-2-(4-nitrophenyl)-1',3'-dioxo-3-spiro[3,10b-dihydro-2H-pyrrolo[2,1-a]phthalazine-1,2'-indene]carboxylic acid tert-butyl ester] registered an IC50 of 2.23 µM. The compound `Cc1ccc(C2C(C(=O)c3ccc(Br)cc3)C(=O)C(=O)N2Cc2ccco2)o1` (stereo not drawn) [(4Z)-4-[(4-bromophenyl)-hydroxy-methylene]-1-(2-furfuryl)-5-(5-methyl-2-furyl)pyrrolidine-2,3-quinone] showed an IC50 of 66.4 µM. `N#CC1C(=N)Oc2[nH]nc(-c3ccccc3)c2C1c1cccnc1` (stereo not drawn) [MLS000030179] gave an IC50 of 60.4 µM. For `N#CC1C(=N)Oc2[nH]nc(-c3ccc(F)cc3)c2C1c1cccnc1` (stereo not drawn) [MLS000043841] the value was 61.2 µM; for `Cc1nc2c([nH]1)C1(CCN(Cc3ccccc3)CC1)C(C#N)C(=N)O2` (stereo not drawn) [MLS000047918], 63.2 µM; for `O=NCc1c[nH]c2ccccc12` [MLS000104363], 13.2 µM. `CC(C)CC1c2c(-c3ccccc3)n[nH]c2OC(=N)C1C#N` (stereo not drawn) [MLS000121961] returned an IC50 of 33.7 µM. As for `O=C1c2ccccc2C(=O)C1C1=NC(C(=O)O)c2c1c(O)n(-c1ccc(Cl)cc1)c2O` (stereo not drawn) [MLS000331181], 71.6 µM corresponded to half-maximal inhibition (IC50). Compound `CN(C)c1ccc(/N=N/c2ccccc2C(=O)OCC(=O)N2CCCC2)cc1` [MLS000374806] registered an IC50 of 9.23 µM.

Compound `C/C(=C\c1ccco1)C1c2c(-c3ccc(C)cc3)n[nH]c2OC(=N)C1C#N` (stereo not drawn) [MLS000519110] displayed a half-maximal inhibitory concentration (IC50) of 132 µM. As to `COc1cccc(-c2n[nH]c3c2C(c2ccoc2)C(C#N)C(=N)O3)c1` (stereo not drawn) [MLS000558215], the IC50 was 76.8 µM. Next, `CCOC(=O)C1C(=O)C(=Cc2ccc(OCC(=O)O)c(OCC)c2)SC1=Nc1ccc(OC)cc1` (stereo not drawn) [MLS000704394]: 21.3 µM; `CC(=NNC(=O)Cc1c(C)[nH][nH]c1=O)c1ccco1` [MLS000723689]: 12.3 µM; `CCOc1ccc(-n2c(O)cc(Sc3nnc(-c4ccccc4)[nH]3)c2O)cc1` [MLS000765380]: 11.1 µM. `Cc1[nH][nH]c(=O)c1CCC(=O)NN=CC(Br)=Cc1ccccc1` [N'-(2-bromo-3-phenyl-2-propen-1-ylidene)-3-(3-methyl-5-oxo-4,5-dihydro-1H-pyrazol-4-yl)propanohydrazide]: inhibition was half-maximal at 8 µM (IC50). For `Cc1[nH][nH]c(=O)c1CCC(=O)NN=Cc1cccc(Cl)c1` [N'-[(1Z)-(3-chlorophenyl)methylene]-3-(3-methyl-5-oxo-4,5-dihydro-1H-pyrazol-4-yl)propanohydrazide] the value was 20.9 µM; for `COc1cccc(C=NNC(=O)Cc2c(C)[nH][nH]c2=O)c1O` [N'-[(E)-(5-methoxy-6-oxocyclohexa-2,4-dien-1-ylidene)methyl]-2-(3-methyl-5-oxo-1,4-dihydropyrazol-4-yl)acetohydrazide], 92.1 µM; for `COc1ccc(NC(=O)CSc2nc(C)cc(=O)[nH]2)cc1` [N-(4-methoxyphenyl)-2-[(4-methyl-6-oxo-5H-pyrimidin-2-yl)sulfanyl]acetamide], 3.09 µM. Next, `CCOc1cc(C2c3c(-c4ccccc4)n[nH]c3OC(=N)C2C#N)ccc1O` (stereo not drawn) [SMR000019337]: 77.1 µM; `CC(=O)N1CCC2(CC1)c1c(CSc3ccc(C)cc3)n[nH]c1OC(=N)C2C#N` (stereo not drawn) [SMR000036525]: 21.1 µM; `Cc1ccc(-c2n[nH]c3c2C(c2ccoc2)C(C#N)C(=N)O3)cc1C` (stereo not drawn) [SMR000078160]: 3.65 µM. Next, `Cc1ccc(-c2ccc([CH+][N-]Nc3nc(O)c(CC(=O)O)s3)o2)c([N+](=O)[O-])c1` [SMR000135699]: 101 µM. As to `Cc1cc(-c2n[nH]c3c2C(c2cccc(O)c2)C(C#N)C(=N)O3)c(C)s1` (stereo not drawn) [SMR000136653], the midpoint of inhibition, the IC50, lay at 52.8 µM. The compound `Cc1ccc(-c2n[nH]c3c2C(c2ccsc2)C(C#N)C(=N)O3)cc1` (stereo not drawn) [SMR000143666] had an IC50 of 11.3 µM.

`COc1cccc(C=NNC(=O)Cc2c(C)[nH][nH]c2=O)c1OC` [SMR000147373] yielded an IC50 of 23.5 µM. Next, `O=C1c2ccccc2C(=O)C1C1=NC(C(=O)O)c2c1c(O)n(-c1ccccc1)c2O` (stereo not drawn) [SMR000168620]: 68 µM. Take `CCc1nnc(NS(=O)(=O)c2ccc(N=CCC(=O)c3cccc4ccccc34)cc2)s1` [SMR000172027]: the IC50 worked out at 10.1 µM. `Cc1ccc(S(=O)(=O)Oc2cccc(-n3c(O)c4c(c3O)CC=CC4)c2)cc1` [SMR000197106] showed an IC50 of 49.6 µM.

In turn, `CC(CCC1CC(C)OC1=O)N=Nc1nc(-c2ccccc2)cs1` (stereo not drawn) [SMR000204131] returned an IC50 of 30.8 µM.

For the compound `O=C1C=C/C(=C/NN2C(=O)C3C4C=CC(CC4)C3C2=O)C=C1O` (stereo not drawn) [SMR000207592], the IC50 is 34.3 µM.

In the case of `CC(CC1CC(C)(C)OC1=O)N=Nc1nc(-c2ccccc2)cs1` (stereo not drawn) [SMR000220752], the IC50 was found to be 52.8 µM. For `Cc1cc(C=C2C(=O)NC(=O)N(c3ccc(F)cc3)C2=O)c(C)n1-c1ccc(C(=O)O)cc1` [SMR000273525] the value was 149 µM; for `CC(=NNC(=O)Cc1c(C)[nH][nH]c1=O)c1cccs1` [SMR000305285], 3.56 µM; for `N#Cc1c(NC=C2C(=O)NC(=S)NC2=O)sc2c1CCCC2` [SMR000305847], 110 µM. Regarding `O=C(Nn1c(O)csc1=S)C(=O)Nn1c(O)csc1=S` [SMR000349781], the IC50 was 20.5 µM. For `O=C(O)c1ccc(CN=Nc2ccc(F)cc2F)cc1` [SMR000364892] the value was 99.4 µM; for `Cc1ccc(CN=Nc2ccc(C(=O)O)cc2)s1` [SMR000364894], 20.4 µM. For the compound `O=C(O)c1cc(N=NCc2ccc(OCc3ccccc3)cc2)ccc1Cl` [SMR000364895], the IC50 worked out at 20 µM. `CN(C)c1ccc(/N=N/c2ccccc2C(=O)OCC(=O)N(C)C2CCCCC2)cc1` [[2-[cyclohexyl(methyl)amino]-2-oxidanylidene-ethyl] 2-[[4-(dimethylamino)phenyl]diazenyl]benzoate] had an IC50 of 15.2 µM.

As for `Cc1c(C)c(O)c(C=CCCC#CCCCC#CCO)c(C)c1O` [docebenone], the IC50 was found to be 53.4 µM. Next, `CCOC(O)c1oc2c(c(=O)c1-c1nncn1-c1ccccc1)C=CC(=O)C2=O` (stereo not drawn) [ethyl 7,8-dihydroxy-4-oxo-3-(4-phenyl-4H-1,2,4-triazol-3-yl)-4H-chromene-2-carboxylate]: 6.58 µM; `O=C(O)[C@H]1O[C@@H](Oc2c(-c3ccc(O)c(O)c3)oc3cc(O)cc(=O)c-3c2O)[C@H](O)[C@@H](O)[C@@H]1O` [quercetin glucuronide]: 48.2 µM; `O=C(O)c1ccc(N=NCc2ccc(C(F)(F)F)cc2)cc1` [sulfuric acid;4-[(N'E)-N'-[4-(trifluoromethyl)benzylidene]hydrazino]benzoic acid]: 46.3 µM.

The term IC50 denotes the concentration that gives 50% inhibition.
